Laboratory results published in patent publication US20060280725A1, “Compositions and methods of treating and diagnosing hepatoma” (priority 2003, published 2006).
Like-named read-outs stand apart in the source and are kept apart here.

Key:
Focus = assay: Glutamine transport assay (initial-rate uptake, kinetic analysis); assay type: cell-based, human
Procedure: (§1) Glutamine Transport Assays. Measurement of initial-rate glutamine uptake was carried out via the cluster-tray method originally described by Gazzola (21) as reported previously (6, 9). Briefly, after trypsinization hepatoma cells were plated at a density of 1×10^5 cells/well in 24-well culture plates (Costar Corp., Cambridge, Mass.) and allowed to grow to >80% confluence, typically one to two days later. For initial-rate measurements, the radiotracer utilized was L-[G-^3H] glutamine (Amersham Corp., Arlington Heights, Ill.) at 4 μCi/ml, in the presence of unlabeled L-glutamine at 50 μM. For kinetic studies, the amount of unlabeled glutamine in the transport buffer varied from 10 μM to 10 mM. All transport measurements were carried out at 37° C. and were terminated after 30 s by three rapid washes with an ice-cold phosphate-buffered saline solution. Intracellular radiolabeled glutamine was extracted with 0.2 ml/well of 0.2% sodium dodecyl sulfate (SDS) and 0.2 N NaOH; after 1 h, 0.1 ml of the lysate was neutralized with 10 μl of 2 N HCl and subjected to scintillation spectrophotometry in a Packard TopCount™ (Packard Instruments, Meriden, Conn.). The remaining lysate was utilized for the determination of cellular protein by the bicinchoninic acid (BCA) method (Pierce Chemical Co., Rockford, Ill.). Rates of glutamine transport were calculated from the cpm per sample, the specific activity of the uptake mix (in cpm/nmol) and normalized to cellular protein content in a Microsoft Excel® spreadsheet program. Transport values obtained in the absence of extracellular Na^+ (diffusion and Na^+-independent uptake) were subtracted from those in the presence of Na^+ (total uptake) to yield Na^+-dependent rates which are reported in units of nmol•mg^−1 protein•30 s^−1. All transport values depicted are the average±standard deviation of four separate determinations. Kinetic analysis of Eadie-Hofstee linearized transport data (v vs. v/[L-GLN]) was performed by regression analysis (Cricket Graph®, Computer Associates, Islandia, N.Y.). Nonlinear regression analysis was performed with DataDesk (Data Description, Inc. Ithaca, N.Y.) and Excel for two component Michaelis-Menten kinetics: v=((Vmax1×[S])/(Km1+[S])+(Vmax2×[S])/(Km2+[S])).
(§2) Therefore, two component nonlinear regression analyses were performed on the Na^+-dependent transport kinetic data, where they were adequately resolved into high and low affinity components in all cell lines under study. The results are graphically depicted in FIG. 1 as insets. […] Possibilities for each cell line will be offered discussion based on the molecular analyses described below.

Hep3B = assay: as above; assay type: cell-based, human
Procedure: as §1, §2

Huh-7 = assay: as above; assay type: cell-based, human
Procedure: as §1, §2

PLC/PRF/5 = assay: as above; assay type: cell-based, human
Procedure: as §1, §2

[1] = system: human fetal liver fibroblasts (HFLF); assay: Glutamine transport assay (inhibition and kinetic analysis); assay type: cell-based
Procedure: FIG. 5. Functional and molecular assessment of ATB^0 expression in human fetal liver fibroblasts (HFLF) and cirrhotic liver tissue. A) Amino acid inhibition analysis of Na^+-dependent glutamine uptake in human fetal liver fibroblasts. Fibroblasts were isolated and cultured as described in the Methods section, and amino acid inhibition analysis of 50 μM L-glutamine uptake was carried out as described in FIG. 1. *p<0.010 vs. control. The Eadie-Hofstee plot of the kinetic analysis is shown as an inset, with the dashed lines representing the resolved high and low affinity components of the composite data (solid line). The derived values of the kinetic constants for each component are given in the Results section. B) Northern blot analysis of ATB^0 expression in HFLF. Radiolabeled cDNA probes were generated with the Megaprime™ kit as described in the Methods section, and hybridized to 20 μg of total RNA from HFLF. Exposure time was 24 h. C) RT-PCR and restriction enzyme analysis of ATB^0 expression in HFLF, normal and cirrhotic liver. The analysis was carried out exactly as described in FIG. 3. Omission of RT is shown for the normal liver sample. D) Expression of ATB^0 in biopsies from a patient with liver cirrhosis and hepatocellular carcinoma (HCC). Northern blot analysis of ATB^0 & SN1 expression were performed on RNA extracted from the snap-frozen biopsies. RNA isolation and northern blot analysis was carried out as described in the Methods section, with full-length riboprobes used for detection of transporter mRNA. Exposure times for the blots are shown to illustrate relative expression levels for ATB^0 in each of the samples.
as §1, with “v=((Vmax1×[S])/(Km1+[S])+(Vmax2×[S])/(Km2+[S])). […]” for “v=((Vmax1×[S])/(Km1+[S])+(Vmax2×[S])/(Km2+[S])).”

[2] = read-out: Km, high affinity component
[3] = read-out: Km, low affinity system
[4] = read-out: Km, high affinity system
[5] = read-out: Km, low affinity component

`NC(=O)CC[C@H](N)C(=O)O` [glutamine, L-glutamine] was tested, and the “Vmax, high affinity component” value (Focus) was 2.2 nmol•mg^−1 protein•30 s^−1, the “Vmax, low affinity system” value (Focus) was 2.7 nmol•mg^−1 protein•30 s^−1 and the Km (Focus; [2]) was 122 µM. For the same molecule, the Km (Focus; [3]) was 1200 µM, the “Vmax, high affinity system” value (Hep3B) was 3.0 nmol•mg^−1 protein•30 s^−1 and the “Vmax, low affinity system” value (Hep3B) was 4.5 nmol•mg^−1 protein•30 s^−1. The Km (Hep3B; Na+-dependent glutamine transport, read-out: Km, low affinity system) was 1000 µM, the Km (Hep3B; [4]) was 90 µM and the “Vmax, high affinity component” value (Huh-7) was 7.3 nmol•mg^−1 protein•30 s^−1. For the same molecule, the “Vmax, low affinity component” value (Huh-7) was 11.7 nmol•mg^−1 protein•30 s^−1, the Km (Huh-7; [2]) was 50 µM and the Km (Huh-7; [5]) was 861 µM. The “Vmax, high affinity system” value (PLC/PRF/5) was 0.82 nmol•mg^−1 protein•30 s^−1, the “Vmax, low affinity system” value (PLC/PRF/5) was 3.9 nmol•mg^−1 protein•30 s^−1 and the Km (PLC/PRF/5; [4]) was 23 µM. For the same molecule, the Km (PLC/PRF/5; [3]) was 775 µM, the “Vmax, high affinity component” value [1] was 5.3 nmol•mg^−1 protein•30 s^−1 and the “Vmax, low affinity component” value [1] was 3.1 nmol•mg^−1 protein•30 s^−1. The Km [1, 2] was 163 µM and the Km [1, 5] was 1200 µM.
